Measured values reported in patent US11076594B2, “Pyrazolone compound or salt thereof, preparation method therefor, herbicide composition and use thereof” (QINGDAO KINGAGROOT CHEMICAL COMPOUNDS CO., LTD., priority 2015, dated 2021).

Columns and labels:
Assay type in all cases: in vivo
Settings in all cases: post-emergence spray at 4-5 leaf stage, 250 g/ha active ingredient with 450 kg/ha water, rated after 3 weeks in greenhouse
foxtail = test: weed control effect in post-emergence stage (Table 1); parameters: key: Level 10: completely dead; Level 9: above 95% growth control rate; Level 8: above 90% growth control rate; Level 7: above 80% growth control rate; Level 6: above 70% growth control rate; Level 5: above 60% growth control rate; Level 4: above 50% growth control rate; Level 3: above 20% growth control rate; Level 2: 5%-20% growth control rate; Level 1: below 5% growth control rate
How it was run: (§1)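 Post-emergence spray: compounds dissolved in acetone, Tween 80 added, diluted with water, applied to plants at 4-5 leaf stage. Plants kept 3 wk in greenhouse; activity scored as fresh-weight control rate.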

crab grass = test: as above; parameters: key: Level 10: completely dead; Level 9: above 95% growth control rate; Level 8: above 90% growth control rate; Level 7: above 80% growth control rate; Level 6: above 70% growth control rate; Level 5: above 60% growth control rate; Level 4: above 50% growth control rate; Level 3: above 20% growth control rate; Level 2: 5%-20% growth control rate; Level 1: below 5% growth control rate
How it was run: as §1

bidens bipinnata = test: as above; parameters: key: Level 10: completely dead; Level 9: above 95% growth control rate; Level 8: above 90% growth control rate; Level 7: above 80% growth control rate; Level 6: above 70% growth control rate; Level 5: above 60% growth control rate; Level 4: above 50% growth control rate; Level 3: above 20% growth control rate; Level 2: 5%-20% growth control rate; Level 1: below 5% growth control rate
How it was run: as §1

rorippa indica = test: as above; parameters: key: Level 10: completely dead; Level 9: above 95% growth control rate; Level 8: above 90% growth control rate; Level 7: above 80% growth control rate; Level 6: above 70% growth control rate; Level 5: above 60% growth control rate; Level 4: above 50% growth control rate; Level 3: above 20% growth control rate; Level 2: 5%-20% growth control rate; Level 1: below 5% growth control rate
How it was run: as §1

echinochloa = test: as above; parameters: key: Level 10: completely dead; Level 9: above 95% growth control rate; Level 8: above 90% growth control rate; Level 7: above 80% growth control rate; Level 6: above 70% growth control rate; Level 5: above 60% growth control rate; Level 4: above 50% growth control rate; Level 3: above 20% growth control rate; Level 2: 5%-20% growth control rate; Level 1: below 5% growth control rate
How it was run: as §1

Indian mallow = test: as above; parameters: key: Level 10: completely dead; Level 9: above 95% growth control rate; Level 8: above 90% growth control rate; Level 7: above 80% growth control rate; Level 6: above 70% growth control rate; Level 5: above 60% growth control rate; Level 4: above 50% growth control rate; Level 3: above 20% growth control rate; Level 2: 5%-20% growth control rate; Level 1: below 5% growth control rate
How it was run: as §1

wheat = test: post-emergence stage experiment, crop (Table 1)
How it was run: as §1

corn = test: post-emergence stage experiment, crop (Table 1)
How it was run: as §1

rice = test: post-emergence stage experiment, crop (Table 1); parameters: key: Level 10: completely dead; Level 9: above 95% growth control rate; Level 8: above 90% growth control rate; Level 7: above 80% growth control rate; Level 6: above 70% growth control rate; Level 5: above 60% growth control rate; Level 4: above 50% growth control rate; Level 3: above 20% growth control rate; Level 2: 5%-20% growth control rate; Level 1: below 5% growth control rate
How it was run: as §1

Row | Structure (SMILES) | weed control effect, Green foxtail (level) (foxtail) | weed control effect, Crab grass (level) (crab grass) | weed control effect, Bidens bipinnata (level) (bidens bipinnata) | weed control effect, Rorippa indica (level) (rorippa indica) | weed control effect, Echinochloa (level) (echinochloa) | weed control effect, Indian mallow (level) (Indian mallow) | effect on crop, Wheat (level) (wheat) | effect on crop, Corn (level) (corn) | effect on crop, Rice (level) (rice)
1 | CCn1ncc(C(=O)c2ccc(C(F)(F)F)c(N3CCCCC3=O)c2Cl)c1OC(=O)c1cn(C)nc1C [Compound 107] | 10 | 8 (Level 8: above 90% growth control rate) | 9 (Level 9: above 95% growth control rate) | 6 (Level 6: above 70% growth control rate) | 10 | 10 | 5 (Level 5: above 60% growth control rate) | 5 (Level 5: above 60% growth control rate) | 8 (Level 8: above 90% growth control rate)
2 | CCOc1c(C(=O)Oc2c(C(=O)c3ccc(C(F)(F)F)c(N4CCCC4=O)c3Cl)cnn2C)cnn1C [Compound 015] | 10 | 9 (Level 9: above 95% growth control rate) | 8 (Level 8: above 90% growth control rate) | 9 (Level 9: above 95% growth control rate) | 5 (Level 5: above 60% growth control rate) | 8 (Level 8: above 90% growth control rate) | 2 (Level 2: 5%-20% growth control rate) | 9 (Level 9: above 95% growth control rate) | 2 (Level 2: 5%-20% growth control rate)
3 | Cn1ncc(C(=O)c2ccc(C(F)(F)F)c(N3CCCCCC3=O)c2Cl)c1O [Compound 050] | 7 (Level 7: above 80% growth control rate) | 3 (Level 3: above 20% growth control rate) | 3 (Level 3: above 20% growth control rate) | 5 (Level 5: above 60% growth control rate) | 2 (Level 2: 5%-20% growth control rate) | 9 (Level 9: above 95% growth control rate) | 0 | 3 (Level 3: above 20% growth control rate) | 0
4 | CCc1nn(CC)c(O)c1C(=O)c1ccc(C(F)(F)F)c(N2CCCCCC2=O)c1Cl [Compound 122] | 10 | 3 (Level 3: above 20% growth control rate) | 5 (Level 5: above 60% growth control rate) | 0 | 9 (Level 9: above 95% growth control rate) | 5 (Level 5: above 60% growth control rate) | 1 (Level 1: below 5% growth control rate) | 0 | 5 (Level 5: above 60% growth control rate)
5 | Cc1nn(C)cc1C(=O)Oc1c(C(=O)c2ccc(C(F)(F)F)c(N3CCCCC3=O)c2Cl)cnn1C [Compound 034] | 5 (Level 5: above 60% growth control rate) | 10 | 4 (Level 4: above 50% growth control rate) | 10 | 10 | 9 (Level 9: above 95% growth control rate) | 1 (Level 1: below 5% growth control rate) | 3 (Level 3: above 20% growth control rate) | 3 (Level 3: above 20% growth control rate)
6 | CCn1nc(C2CC2)c(C(=O)c2ccc(C(F)(F)F)c(-n3cc(C)cn3)c2Cl)c1O [Compound 144] | 9 (Level 9: above 95% growth control rate) | 2 (Level 2: 5%-20% growth control rate) | 10 | 2 (Level 2: 5%-20% growth control rate) | 10 | 10 | 0 | 0 | 8 (Level 8: above 90% growth control rate)
7 | CCn1nc(C2CC2)c(C(=O)c2ccc(C(F)(F)F)c(N3CCCC3=O)c2Cl)c1O [Compound 104] | 10 | 9 (Level 9: above 95% growth control rate) | 7 (Level 7: above 80% growth control rate) | 10 | 10 | 10 | 5 (Level 5: above 60% growth control rate) | 4 (Level 4: above 50% growth control rate) | 10
8 | CCn1ncc(C(=O)c2ccc(C(F)(F)F)c(-n3cc(C)cn3)c2Cl)c1O [Compound 136] | 10 | 7 (Level 7: above 80% growth control rate) | 10 | 10 | 10 | 10 | 1 (Level 1: below 5% growth control rate) | 1 (Level 1: below 5% growth control rate) | 10
9 | Cn1cc(C(=O)Oc2c(C(=O)c3ccc(C(F)(F)F)c(N4CCCCC4=O)c3Cl)cnn2C)cn1 [Compound 033] | 10 | 9 (Level 9: above 95% growth control rate) | 9 (Level 9: above 95% growth control rate) | 10 | 9 (Level 9: above 95% growth control rate) | 10 | 2 (Level 2: 5%-20% growth control rate) | 3 (Level 3: above 20% growth control rate) | 8 (Level 8: above 90% growth control rate)
10 | CCOc1c(C(=O)Oc2c(C(=O)c3ccc(C(F)(F)F)c(N4CCCCC4=O)c3Cl)cnn2C)cnn1C [Compound 032] | 10 | 10 | 6 (Level 6: above 70% growth control rate) | 10 | 9 (Level 9: above 95% growth control rate) | 10 | 1 (Level 1: below 5% growth control rate) | 4 (Level 4: above 50% growth control rate) | 8 (Level 8: above 90% growth control rate)
11 | Cc1cnn(-c2c(C(F)(F)F)ccc(C(=O)c3cnn(C)c3O)c2Cl)c1 [Compound 080] | 10 | 6 (Level 6: above 70% growth control rate) | 8 (Level 8: above 90% growth control rate) | 7 (Level 7: above 80% growth control rate) | 5 (Level 5: above 60% growth control rate) | 7 (Level 7: above 80% growth control rate) | 2 (Level 2: 5%-20% growth control rate) | 3 (Level 3: above 20% growth control rate) | 1 (Level 1: below 5% growth control rate)
12 | CCc1nn(C)c(O)c1C(=O)c1ccc(C(F)(F)F)c(-n2cccn2)c1Cl [Compound 130] | 10 | 3 (Level 3: above 20% growth control rate) | 3 (Level 3: above 20% growth control rate) | 10 | 10 | 0 | 2 (Level 2: 5%-20% growth control rate) | 4 (Level 4: above 50% growth control rate) | 7 (Level 7: above 80% growth control rate)
